Laboratory results: the supplement of paper PMC11451515

Test system: NOMO1
Assay: cell viability relative to DMSO control; higher = less cytotoxic
Conditions: 48 h
Summary of the method: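 NOMO1 or SEM cells were plated at 500 cells/well and P12-Ichikawa cells at 1000 cells/well in 1536-well plates (5 μl), after each leukemia line had been adapted for at least four passages in each medium. Pin dosing delivered library compounds in DMSO at 11 threefold concentrations, 47 μM to 0.79 nM. CellTiter-Glo One luminescence was read after 48 h at 37°C. Viability is reported as a per-plate percentage of DMSO wells, with cell-free wells as background.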

[1] = HPLM + 10% dialyzed FBS, 0.000781 µM
[2] = HPLM + 10% dialyzed FBS, 0.00234 µM
[3] = HPLM + 10% dialyzed FBS, 0.00702 µM
[4] = HPLM + 10% dialyzed FBS, 0.0211 µM
[5] = HPLM + 10% dialyzed FBS, 0.0632 µM
[6] = HPLM + 10% dialyzed FBS, 0.19 µM
[7] = HPLM + 10% dialyzed FBS, 0.569 µM
[8] = HPLM + 10% dialyzed FBS, 1.71 µM
[9] = HPLM + 10% dialyzed FBS, 5.12 µM
[10] = HPLM + 10% dialyzed FBS, 15.4 µM
[11] = HPLM + 10% dialyzed FBS, 46.1 µM
[12] = RPMI 5 mM glucose + 10% FBS, 0.000781 µM
[13] = RPMI 5 mM glucose + 10% FBS, 0.00234 µM
[14] = RPMI 5 mM glucose + 10% FBS, 0.00702 µM
[15] = RPMI 5 mM glucose + 10% FBS, 0.0211 µM
[16] = RPMI 5 mM glucose + 10% FBS, 0.0632 µM
[17] = RPMI 5 mM glucose + 10% FBS, 0.19 µM
[18] = RPMI 5 mM glucose + 10% FBS, 0.569 µM
[19] = RPMI 5 mM glucose + 10% FBS, 1.71 µM
[20] = RPMI 5 mM glucose + 10% FBS, 5.12 µM
[21] = RPMI 5 mM glucose + 10% FBS, 15.4 µM
[22] = RPMI 5 mM glucose + 10% FBS, 46.1 µM
[23] = RPMI 5 mM glucose + 10% dialyzed FBS, 0.000781 µM
[24] = RPMI 5 mM glucose + 10% dialyzed FBS, 0.00234 µM
[25] = RPMI 5 mM glucose + 10% dialyzed FBS, 0.00702 µM
[26] = RPMI 5 mM glucose + 10% dialyzed FBS, 0.0211 µM
[27] = RPMI 5 mM glucose + 10% dialyzed FBS, 0.0632 µM
[28] = RPMI 5 mM glucose + 10% dialyzed FBS, 0.19 µM
[29] = RPMI 5 mM glucose + 10% dialyzed FBS, 0.569 µM
[30] = RPMI 5 mM glucose + 10% dialyzed FBS, 1.71 µM
[31] = RPMI 5 mM glucose + 10% dialyzed FBS, 5.12 µM
[32] = RPMI 5 mM glucose + 10% dialyzed FBS, 15.4 µM
[33] = RPMI 5 mM glucose + 10% dialyzed FBS, 46.1 µM

Structure (SMILES) | cell viability [1] [%] | cell viability [2] [%] | cell viability [3] [%] | cell viability [4] [%] | cell viability [5] [%] | cell viability [6] [%] | cell viability [7] [%] | cell viability [8] [%] | cell viability [9] [%] | cell viability [10] [%] | cell viability [11] [%] | cell viability [12] [%] | cell viability [13] [%] | cell viability [14] [%] | cell viability [15] [%] | cell viability [16] [%] | cell viability [17] [%] | cell viability [18] [%] | cell viability [19] [%] | cell viability [20] [%] | cell viability [21] [%] | cell viability [22] [%] | cell viability [23] [%] | cell viability [24] [%] | cell viability [25] [%] | cell viability [26] [%] | cell viability [27] [%] | cell viability [28] [%] | cell viability [29] [%] | cell viability [30] [%] | cell viability [31] [%] | cell viability [32] [%] | cell viability [33] [%]
O=C(OC)[C@]12CC[C@@]3(C)[C@]4(C)CC[C@H]5[C@@](C)(C)C(=O)C(=C[C@]5(C)C4=CC(=O)[C@@H]3[C@@H]2C[C@](C)(C)CC1)C#N | 95 | 100 | 90.6 | 112 | 110 | 94.1 | 113 | 96.1 | 110 | 2.47 | 2.86 | 93.9 | 99.8 | 89.5 | 82.1 | 99.2 | 94.2 | 88.9 | 84.7 | 88.6 | 2.76 | 2.71 | 87.2 | 92 | 96.5 | 96.6 | 102 | 112 | 85 | 84.6 | 85.7 | 2.44 | 2.7
CC/1=C/C(=O)N(O)/C(=C1)C2CCCCC2 | 110 | 117 | 135 | 146 | 143 | 145 | 140 | 136 | 139 | 79 | 39.8 |  |  |  |  |  |  |  |  |  |  |  |  |  |  |  |  |  |  |  |  |  | 
CC[C@H](CC#N)OC(=O)N[C@@H](C)c1cccc(NC(=O)Nc2ccc(-c3cnco3)c(OC)c2)c1 | 117 | 114 | 119 | 105 | 127 | 111 | 98.2 | 76.4 | 38.9 | 32.1 | 35.1 | 111 | 104 | 121 | 107 | 114 | 105 | 113 | 66.8 | 38.3 | 25.9 | 22.3 | 117 | 106 | 115 | 120 | 111 | 112 | 91 | 84 | 51.9 | 39.4 | 35.8
C/C=C(/C)C(=O)O[C@H]1C(C)=C2[C@H]([C@@H]1OC(=O)CCCCCCC)[C@@](C)(OC(C)=O)C[C@H](OC(=O)CCC)[C@@]1(O)[C@H]2OC(=O)[C@@]1(C)O | 100 | 110 | 99.4 | 127 | 56.6 | 12.5 | 7.29 | 4.31 | 2.9 | 2.91 | 5 | 112 | 112 | 130 | 119 | 92.7 | 17 | 9.53 | 10.4 | 6.41 | 3.83 | 5.08 | 117 | 121 | 129 | 123 | 68 | 13.4 | 8.71 | 10.1 | 7.55 | 5.66 | 5.67
CC(N[C@H]1C[C@@H]1c1ccccc1)c1ccc2c(c1)OCCO2 (some centres not stated) |  |  |  |  |  |  |  |  |  |  |  | 105 | 117 | 116 | 106 | 103 | 102 | 113 | 112 | 114 | 98.7 | 109 | 115 | 124 | 115 | 126 | 119 | 114 | 126 | 123 | 110 | 118 | 111
